# Values of other authors in patent US7173016B2, “Composition and method for treating graft-versus-host disease” (Mayne Pharma (USA) Inc., priority 2001, dated 2007).
# Settings: acid-catalyzed glycosidic cleavage
smiles,measurement,value
"OC[C@H]1O[C@@H](n2cnc3c2NC=NC[C@H]3O)C[C@@H]1O [pentostatin, 2′-deoxycoformycin]",acid stability,highly acid-labile
